Measured values: publication PMC6405172, “In vitro activity and mode of action of phenolic compounds on Leishmania donovani” (PLoS Neglected Tropical Diseases, 2019)

Tests used:
[1] = system: Leishmania donovani promastigotes; experiment: Promastigote viability assay (MTT); assay type: cell-based; conditions: for Selectivity Index (CC50/IC50), promastigotes: CC50 Raw 264.7 / IC50 promastigotes; for IC50: Leishmania donovani, MTT, 72 hours at 25°C, read-out: Promastigotes IC50 (μM) ± SD
Description: The MTT assay was done as previously described. Briefly, promastigotes (2 x 10^5 cells) were cultured in freshly prepared M-199 medium supplemented with 10% heat inactivated fetal bovine serum in the presence or absence of varying concentrations of the phenolic compounds (0–50 μg/mL) for 72 hours at 25°C. Amphotericin B (0–50 μg/mL) and deferoxamine (0–50 μg/mL) were used as positive controls. After incubation, 5 mg/mL MTT solution was added to the promastigotes in each well and incubated for 3 hours at 25°C. In this assay, the yellow tetrazolium MTT dye was reduced to insoluble formazan crystals (purple color) in living cells using NADH as their reducing agent. Formazan crystals formed after incubation were solubilized with acidified isopropanol and incubated at 37°C for 30 min. The change in color from yellow to purple was read at an absorbance of 570 nm using Thermo Scientific Varioskan LUX. The cell viability and IC50 were determined from the concentration response curve generated using GraphPad Prism 6.0 Software.

[2] = system: L. donovani promastigotes; experiment: Morphology analysis (DAPI, microscopy); assay type: cell-based, Leishmania donovani; conditions: 24 hours; for parasites with rounded morphology, aggregated kinetoplast and nuclear DNA: 2x IC50
Description: The cell pellets were then washed twice and resuspended in 1x PBS. The cells were then allowed to settle on poly-L-lysine coated slides and then rinsed with 1x PBS. Tris-HCl (100 mM) pH 7.5 in 1x PBS was used to block the PFA for 10 minutes. DAPI stain (0.1μg/mL) was added followed by one wash in 1x PBS. Coverslips were mounted onto the slides using Vectashield mounting media and observed under the Olympus fluorescent microscope to detect any phenotypic changes in L. donovani promastigotes. The total number of parasites was determined by direct counting of parasites per field, using ImageJ Software. The frequency of parasites was visually determined by counting parasites that had any abnormalities in their structure compared to the untreated control.

[3] = system: L. donovani promastigotes; experiment: Cell cycle analysis by flow cytometry; assay type: cell-based, Leishmania donovani; conditions: 24 hours; for decrease in the number of parasites at the M phase / increase in G0/G1 cells: 2x IC50 (amphotericin B 1/2 IC50); for increase in G0/G1 cells: versus untreated 34.6%
Description: Cell cycle analysis of treated and untreated L. donovani promastigotes was performed using flow cytometry. […] The fixed cells were harvested, resuspended in 1x PBS for 1 min and washed twice in 1x PBS. Staining solution (Guava cell cycle reagent) was added and incubated at room temperature for 30 min. The percentage cell count in G0, G1, S, G2 and M phases of the cell cycle were determined with BD LSR Fortessa™^. X-20 analyzer (BD Biosciences) and data was analyzed with FlowJo software.

[4] = system: Leishmania donovani promastigotes; experiment: Iron content analysis by atomic absorption spectroscopy; assay type: cell-based; conditions: 24 hours; 4x IC50 (amphotericin B IC50)
Description: The parasites were then washed twice with 1x PBS and resuspended in 50 μl deionized water. An aliquot (10 μl) of the parasite suspension was used for protein content determination as described by. The remaining parasite sample (40 μl) was digested with HNO3 for 1 hour at 80°C and overnight at 20°C. Cell digestions were stopped by the addition of 30% H2O2 and topped up to 1.5 ml with deionized water. Iron content in digested samples, spent and unused media were measured by atomic absorption spectroscopy using a Perkin Elmer Analyst 300 spectrometer.

[5] = system: iron superoxide dismutase A (FeSOD); experiment: RT-qPCR mRNA expression of FeSOD; assay type: cell-based, Leishmania donovani; conditions: promastigotes, 24 hours; for FeSOD Relative quantity: Fig 7B
Description: (§1) Promastigotes (1 x 10^7 cells) were separately treated with rosmarinic acid, apigenin, amphotericin B and deferoxamine, harvested after 24 hours incubation at 25°C. The parasites were then pelleted by centrifugation at 239 × g for 10 min and the pellet was re-suspended in 1 mL TRIzol. Samples were incubated overnight at -80°C and total RNA was extracted as described by the manufacturer’s protocol using Quick-RNA MiniPrep Plus (Zymo Research, USA). Purity of total RNA was determined to be approximately 2.0 using a Nanodrop. The oligonucleotide primers for the amplification of the iron dependent enzymes—ribonucleotide reductase (RNR) (3’[…] and 5’CAACAACTTCTGCGCATCG), iron superoxide dismutase A (FeSOD) (3’[…] and 5’[…]) and Leishmania iron transporter 1 (LIT1) (3’[…] and 5’ […]) were designed using sequences of Leishmania reference genome from tritrypdb.org (http://tritrypdb.org/tritrypdb/) and Primer 3 software. The oligonucleotide primers used in amplifying the housekeeping gene Histone 2A were (3’ […] and 5’[…]). The RT-qPCR reaction was conducted as described by manufacturer’s protocol with final concentrations of oligonucleotide primers as 0.4 μM, 1x Luna Universal One-Step Reaction mix, 1x Luna WarmStart RT Enzyme Mix and template RNA ≤ 1 μg. All the RT-PCR products were standardized with respect to the endogenous control, Histone 2A. The levels of the mRNA transcripts were obtained using the QuantStudio 5 Real-Time PCR System (Applied Biosystems). The data represent three independent experiments done in triplicate and a fold change in gene expression of >2 was considered significant.

[6] = system: ribonucleotide reductase (RNR); experiment: RT-qPCR mRNA expression of RNR; assay type: cell-based, Leishmania donovani; conditions: promastigotes, 24 hours; for RNR Relative quantity: Fig 7C
Description: as §1

Structure (SMILES) | Selectivity Index (CC50/IC50), promastigotes [1] | IC50 [1] | parasites with rounded morphology, aggregated kinetoplast and nuclear DNA [2] | decrease in the number of parasites at the M phase ([3]; versus untreated) | increase in G0/G1 cells [3] | concentration of iron in the spent media [4] | intracellular iron levels in promastigotes [4] | FeSOD mRNA expression versus untreated [5] | FeSOD Relative quantity [5] | decrease in the expression of RNR [6] | RNR Relative quantity [6] | parasites showing irregular shape, severe distortion in the cell membrane, loss of kinetoplast DNA ([2]; half the IC50) | change in the number of parasites at the S phase ([3]; versus untreated) | increased expression of RNR [6]
CC(=O)N(O)CCCCCNC(=O)CCC(=O)N(O)CCCCCNC(=O)CCC(=O)N(O)CCCCCN [Deferoxamine, deferoxamine, reference compound] | 2.60 | 10.35 ± 0.01 µM | 90% | 7.7% | 7% | 0.08 mg/L | 0.36 mg/L | 5 fold | 5.0 | 80 % reduction | 0.2 | – | – | –
C[C@@H]1[C@H](O)[C@@H](C)/C=C/C=C/C=C/C=C/C=C/C=C/C=C/[C@H](O[C@@H]2O[C@H](C)[C@@H](O)[C@H](N)[C@@H]2O)C[C@@H]2O[C@](O)(C[C@@H](O)C[C@@H](O)[C@H](O)CC[C@@H](O)C[C@@H](O)CC(=O)O[C@H]1C)C[C@H](O)[C@H]2C(=O)O [Amphotericin B, reference compound] | – | 6.56 ± 0.06 µM | – | – | 13.1% | 0.07 mg/L | 0.15 mg/L | did not significantly change | 0.7 | – | 3.2 | 90% | significant increase | 3 fold
O=c1cc(-c2ccc(O)cc2)oc2cc(O)cc(O)c12 [Apigenin, apigenin] | 10.45 | 22.77 ± 0.01 µM | – | 6.8% | 8% | 0.11 mg/L | 0.1 mg/L | did not significantly change | 0.7 | – | 2.5 | – | – | 3 fold
O=C(/C=C/c1ccc(O)c(O)c1)O[C@H](Cc1ccc(O)c(O)c1)C(=O)O [Rosmarinic acid, rosmarinic acid] | 15.03 | 16.34 ± 0.1 µM | 70% | 8.0% | 7.1% | 0.09 mg/L | 0.30 mg/L | did not significantly change | 1.3 | 90 % reduction | 0.1 | – | – | –
